Earlier results, collected in patent US20230149366A1, “SOLID DOSAGE FORMS OF TAFAMIDIS” (Nuray Chemicals Private Limited, priority 2021, published 2023).

Conditions: Vyndaqel European Public assessment report

O=C(O)c1ccc2nc(-c3cc(Cl)cc(Cl)c3)oc2c1 [tafamidis, 2-(3,5-dichlorophenyl)-1,3-benzoxazole-6-carboxylic acid]
Solubility in vehicles commonly used in formulating soft gelatin capsules: poor solubility | Gel formation in hard gelatin capsule with standard excipients (upon contact with aqueous vehicles): formed a rigid gel structure
